Experiments:
Panc02 cells = experiment: MTT cytotoxicity assay, Panc02 monolayer culture; format: cell-based, murine
Description: (§1) The cytotoxic effect of the chemotherapeutic drug Gemcitabine (LC Laboratories, Woburn, Mass., USA) on Panc02 cell spheroids culture was compared to the cytotoxic effect on monolayer culture. For the cytotoxic assay, 1×10^4 cells suspended in complete medium were seeded in each well of a 96-well plate. Four (4)-day-old Panc02 spheroids were transferred to a new 96 ultra-low attachment well plate. The next day, the cells and spheroids were treated with different concentrations of Gemcitabine solution (0, 0.1, 1, 10, 25, 50, 100 μM) in sextuplicate wells. After incubating the cells with Gemcitabine for 48 h, 20 microliter (μl) of 3-(4,5-dimethylthiazol-2-yl)-2,5-diphenyltetrazolium bromide (MTT) solution (5 mg/ml) was added into each well, and the cells were incubated for 4 hours. […] Finally, absorbance was recorded at 570 nm using the Epoch™ microplate spectrophotometer (Bio-Tek Instruments, USA). […]
(§2) Parallel experiments were set with traditional 2D monolayer cell cultures to examine differential response of 2D and 3D cell cultures. Cell number and viability were measured using MTT assay after 2 days of Gemcitabine treatment. The IC50 value was calculated. […]

Panc02 cell spheroids = experiment: MTT cytotoxicity assay, Panc02 cell spheroids culture; format: cell-based, murine
Description: as §1, §2

Compound: Nc1ccn([C@@H]2O[C@H](CO)[C@@H](O)C2(F)F)c(=O)n1 [Gemcitabine]
- response to the drug from regression curves, monolayer (Panc02 cells; 0-100 μM Gemcitabine, 48 h): dose-dependent response
- IC50 (Panc02 cells; Mus musculus, Panc02, 2D monolayer culture, 48 h (2 days) Gemcitabine treatment): 9.99 ± 0.07 µM
- response to the drug from regression curves, spheroids (Panc02 cell spheroids; 0-100 μM Gemcitabine, 48 h): dose-dependent response
- IC50 (Panc02 cell spheroids; Mus musculus, 4-day-old acoustically assembled Panc02 3D spheroids, 48 h (2 days) Gemcitabine treatment): 18.38 ± 0.09 µM
